In ChEMBL document CHEMBL1143211, “Inhibitors of proteases and amide hydrolases that employ an alpha-ketoheterocycle as a key enabling functionality” (Bioorg Med Chem, 2008):
One block for each molecule: values may come before it. Where a SMILES comes first, the peptide text is derived from it. [ ]: non-standard residue; d: D form. The star is where a group is joined. Pyrazinecarbonyl = O=C(c1cnccn1)*; Hyp = O=C(O)[C@@H]1C[C@@H](O)CN1; Abu = CC[C@H](N)C(=O)O; Bn = c1ccc(C*)cc1

Columns and labels:
Homo sapiens [1] = species: Homo sapiens; assay: Selectivity for human alpha-thrombin over human trypsin
[2] = Inhibition of human beta-tryptase
[3] = Selectivity for human alpha-thrombin over factor 10a
Homo sapiens [4] = species: Homo sapiens; assay: Selectivity for human beta-tryptase over human alpha thrombin
[5] = target: T1, Trifunctional purine biosynthetic protein adenosine-3 (Homo sapiens, UniProt P22102); assay: Inhibition of human glycinamide ribonucleotide transformylase
T1 sequence (P22102 whole entry): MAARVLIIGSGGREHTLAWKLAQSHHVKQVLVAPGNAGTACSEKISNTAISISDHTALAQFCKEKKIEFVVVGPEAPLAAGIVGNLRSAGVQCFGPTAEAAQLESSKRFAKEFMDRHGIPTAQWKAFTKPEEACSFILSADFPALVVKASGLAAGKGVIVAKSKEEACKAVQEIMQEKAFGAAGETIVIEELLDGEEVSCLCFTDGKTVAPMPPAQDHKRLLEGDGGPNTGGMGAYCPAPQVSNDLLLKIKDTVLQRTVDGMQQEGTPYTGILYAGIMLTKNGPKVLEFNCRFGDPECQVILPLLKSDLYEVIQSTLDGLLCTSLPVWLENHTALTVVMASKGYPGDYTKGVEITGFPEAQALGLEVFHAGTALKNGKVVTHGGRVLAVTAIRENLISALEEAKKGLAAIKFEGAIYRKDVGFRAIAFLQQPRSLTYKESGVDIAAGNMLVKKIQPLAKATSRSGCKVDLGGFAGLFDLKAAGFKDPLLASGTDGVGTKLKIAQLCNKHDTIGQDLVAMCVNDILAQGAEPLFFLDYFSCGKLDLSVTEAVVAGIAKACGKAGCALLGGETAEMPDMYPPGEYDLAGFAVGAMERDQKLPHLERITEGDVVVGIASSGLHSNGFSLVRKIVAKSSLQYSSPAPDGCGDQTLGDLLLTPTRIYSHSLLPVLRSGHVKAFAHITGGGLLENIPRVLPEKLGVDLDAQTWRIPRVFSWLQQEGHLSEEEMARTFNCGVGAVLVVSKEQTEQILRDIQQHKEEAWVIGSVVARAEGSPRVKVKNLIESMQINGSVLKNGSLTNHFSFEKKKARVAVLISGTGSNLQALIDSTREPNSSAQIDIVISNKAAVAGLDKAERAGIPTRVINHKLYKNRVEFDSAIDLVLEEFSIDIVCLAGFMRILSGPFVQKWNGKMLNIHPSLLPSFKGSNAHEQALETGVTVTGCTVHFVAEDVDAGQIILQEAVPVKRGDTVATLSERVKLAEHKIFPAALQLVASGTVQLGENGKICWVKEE

[6] = Inhibition of HCV NS34A protease; parameters: species or system Hepacivirus hominis
[7] = Inhibition of Trypanosoma cruzi prolyl endopeptidase Tc80
Homo sapiens [8] = species: Homo sapiens; assay: Selectivity for human recombinant cathepsin S over human recombinant K
Homo sapiens [9] = species: Homo sapiens; assay: Selectivity for human recombinant cathepsin S over human recombinant L
Homo sapiens [10] = species: Homo sapiens; assay: Selectivity for human recombinant cathepsin S over human cathepsin B
[11] = Selectivity for rat FAAH over monoacylglycerol lipase
[12] = Selectivity for rat FAAH over lipoprotein lipase
[13] = Selectivity for rat FAAH over carboxylesterase 1 lipase
[14] = Selectivity for rat FAAH over triacylglycerol hydrolase
[15] = Selectivity for human alpha-thrombin over bovine trypsin
[16] = Selectivity for human alpha-thrombin over uPA
[17] = Selectivity for human alpha-thrombin over tissue plasminogen activator
Platelet = assay: Antithrombotic activity assessed as inhibition of alpha-thrombin-induced human platelet aggregation; type: functional, cell-based
[18] = Selectivity for human alpha-thrombin over plasmin
[19] = Selectivity for human beta-tryptase over kallikrein
[20] = Selectivity for human beta-tryptase over uPA
[21] = Oral bioavailability in rat; type: ADME, organism-based; conditions: in vivo
[22] = Selectivity for human beta-tryptase over trypsin
[23] = Selectivity for human beta-tryptase over plasmin
[24] = target: T2, Fatty-acid amide hydrolase 1 (Homo sapiens, UniProt O00519); assay: Inhibition of human recombinant FAAH
T2 sequence (O00519 whole entry): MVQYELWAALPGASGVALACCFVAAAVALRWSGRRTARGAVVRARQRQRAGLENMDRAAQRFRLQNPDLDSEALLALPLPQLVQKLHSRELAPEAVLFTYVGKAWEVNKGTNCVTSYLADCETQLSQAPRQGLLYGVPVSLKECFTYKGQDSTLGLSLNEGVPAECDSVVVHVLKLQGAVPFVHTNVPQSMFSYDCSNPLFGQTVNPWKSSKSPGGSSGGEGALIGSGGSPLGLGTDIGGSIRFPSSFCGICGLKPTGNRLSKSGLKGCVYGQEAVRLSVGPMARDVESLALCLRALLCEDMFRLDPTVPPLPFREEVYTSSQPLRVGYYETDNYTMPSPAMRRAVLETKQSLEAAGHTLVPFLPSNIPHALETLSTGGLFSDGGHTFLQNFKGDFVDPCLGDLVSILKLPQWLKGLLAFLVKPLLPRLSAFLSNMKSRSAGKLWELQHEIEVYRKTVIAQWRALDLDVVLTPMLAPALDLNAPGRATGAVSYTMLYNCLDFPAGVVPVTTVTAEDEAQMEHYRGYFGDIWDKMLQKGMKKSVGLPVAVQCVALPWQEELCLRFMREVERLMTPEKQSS

[25] = target: T3, Fatty-acid amide hydrolase 1 (Rattus norvegicus, UniProt P97612)
T3 sequence (P97612 whole entry): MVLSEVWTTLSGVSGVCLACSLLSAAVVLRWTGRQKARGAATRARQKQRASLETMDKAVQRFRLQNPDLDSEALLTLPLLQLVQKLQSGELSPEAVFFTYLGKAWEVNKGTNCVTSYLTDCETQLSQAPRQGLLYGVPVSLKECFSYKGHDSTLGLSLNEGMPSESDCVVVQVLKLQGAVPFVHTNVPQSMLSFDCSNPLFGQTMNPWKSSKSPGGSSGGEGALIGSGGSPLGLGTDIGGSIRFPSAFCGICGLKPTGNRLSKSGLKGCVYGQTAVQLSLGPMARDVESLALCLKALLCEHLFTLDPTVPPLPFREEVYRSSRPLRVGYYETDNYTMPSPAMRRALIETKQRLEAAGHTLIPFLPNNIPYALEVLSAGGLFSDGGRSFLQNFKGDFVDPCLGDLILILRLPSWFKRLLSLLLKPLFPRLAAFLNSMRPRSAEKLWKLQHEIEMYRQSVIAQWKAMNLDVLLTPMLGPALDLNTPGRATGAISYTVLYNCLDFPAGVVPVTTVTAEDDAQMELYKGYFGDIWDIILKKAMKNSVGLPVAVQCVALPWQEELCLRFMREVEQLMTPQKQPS

Trypsin = Trypsin (Homo sapiens, UniProt P07477+P07478+P35030); assay: Inhibition of human trypsin at 100 uM; type: protein assay
[26] = Inhibition of calpain 1 at 10 uM

SMILES: CCOC(=O)N[C@@H](CCCCN)C(=O)c1noc(Cc2ccc(C(=O)NC3Cc4ccccc4C3)cc2)n1
Selectivity ratio (Homo sapiens [1]): > 50 | Ki [2]: 3 nM | Selectivity ratio [3]: > 1000 | Selectivity ratio (Homo sapiens [4]): > 1000

SMILES: Nc1nc(N)c(CCCC(C(=O)c2nc3ccccc3o2)c2ccc(C(=O)N[C@@H](CCC(=O)O)C(=O)O)cc2)c(=O)[nH]1 (some centres undefined)
Ki [5]: 600 nM

SMILES: O=C(C1=NOC(COCc2ccccc2)C1)[C@@H]1CCCN1C(=O)[C@@H]1CCCN1C(=O)OCc1ccccc1 (some centres undefined)
Ki [7]: 1.2 nM

SMILES: Nc1nc(N)c(CCCC(c2ccc(C(=O)N[C@@H](CCC(=O)O)C(=O)O)cc2)C(O)c2nc3ccccc3o2)c(=O)[nH]1 (some centres undefined)
Ki [5]: 1800 nM

SMILES: O=C(N[C@H](C(=O)c1nc2ccccc2o1)C1CC1)O[C@@H](CC1CCCCC1)C(=O)N1CCOCC1
Selectivity ratio (Homo sapiens [8]): > 100 | Selectivity ratio (Homo sapiens [9]): > 100 | Selectivity ratio (Homo sapiens [10]): > 100

SMILES: O=C(CCCCCc1ccccc1)c1nc2ncccc2o1
Selectivity ratio [11]: > 10000 | Selectivity ratio [12]: > 10000 | Selectivity ratio [13]: > 10000 | Selectivity ratio [14]: 10

SMILES: N#Cc1cnc(C(=O)CCc2ccc(-c3ccccc3)cc2)o1
Ki [24]: 0.26 nM | Ki [25]: 0.2 nM

SMILES: O=C(CCCc1ccccc1)c1nc2ncccc2o1
Selectivity ratio [11]: > 10000 | Selectivity ratio [12]: > 10000 | Selectivity ratio [13]: > 10000 | Selectivity ratio [14]: 10 | Ki [25]: 6.9 nM

SMILES: CCCCCCCC/C=C\CCCCCCCC(=O)c1nc2ccccc2o1
Ki [24]: 73 nM

Continued, values first:

Ki [6]: 16000 nM
SMILES: CC[C@@H](C=O)NC(=O)[C@@H]1C[C@@H](OCc2ccccc2)CN1C(=O)[C@@H](NC(=O)[C@@H](NC(=O)c1cnccn1)C(C)C)C(C)C (Pyrazinecarbonyl-VV[Hyp](Bn)[Abu]-aldehyde)

Ratio Ki [15]: 15 | Selectivity ratio [16]: 23000 | Selectivity ratio [17]: 23000 | Ki [2]: 6.5 nM | IC50 (Platelet): 30 nM | Selectivity ratio [18]: 12000 | Selectivity ratio [3]: 2400
SMILES: CN[C@H](Cc1ccccc1)C(=O)N1CCC[C@H]1C(=O)N[C@@H](CCCN=C(N)N)C(=O)c1nc2ccccc2s1

Selectivity ratio [19]: > 1000 | Selectivity ratio [20]: > 1000 | bioavailability [21]: 8% | Ki [2]: 5 nM | Selectivity ratio [22]: 35 | Selectivity ratio [23]: 80 | Selectivity ratio (Homo sapiens [4]): > 1000
SMILES: CCOC(=O)N[C@@H](CCCCN)C(=O)c1noc(Cc2ccc(OCCc3ccccc3)cc2)n1

inhibition (Trypsin): 80%
SMILES: N=C(N)N1CCC[C@@H](C[C@H](NC(=O)CN2C(=O)CN(CCCc3ccccc3)C(=O)[C@@H]2Cc2ccccc2)C(=O)c2nccs2)C1

inhibition [26]: 54%
SMILES: CC(C)C[C@H](NC(=O)OCc1ccccc1)C(=O)N[C@@H](CC(C)C)C(=O)N[C@@H](Cc1ccccc1)C(=O)c1nccs1
